Entries after “also recorded” stand apart in the source; their conditions may differ. Counter-ions that a name gives are not always drawn.
What was measured:
[1] = biological target: T1, isolated tracheal spirals of the guinea pig (Cavia porcellus, UniProt H0W1Z3); test: anticholinergic effectiveness on isolated tracheal spirals (antagonism against acetyl-β-methylcholine chloride); details: for antagonism against acetyl-β-methylcholine chloride / anticholinergic effectiveness (in words): isolated guinea pig tracheal spirals
T1 construct: the whole of the trachea is roughly freed beginning from the larynx up to the tracheal bifurcation, removed and transferred; from tissue; host or cells: isolated trachea (spiral strips) of male Pirbright white guinea pigs
T1 sequence (H0W1Z3 1-590): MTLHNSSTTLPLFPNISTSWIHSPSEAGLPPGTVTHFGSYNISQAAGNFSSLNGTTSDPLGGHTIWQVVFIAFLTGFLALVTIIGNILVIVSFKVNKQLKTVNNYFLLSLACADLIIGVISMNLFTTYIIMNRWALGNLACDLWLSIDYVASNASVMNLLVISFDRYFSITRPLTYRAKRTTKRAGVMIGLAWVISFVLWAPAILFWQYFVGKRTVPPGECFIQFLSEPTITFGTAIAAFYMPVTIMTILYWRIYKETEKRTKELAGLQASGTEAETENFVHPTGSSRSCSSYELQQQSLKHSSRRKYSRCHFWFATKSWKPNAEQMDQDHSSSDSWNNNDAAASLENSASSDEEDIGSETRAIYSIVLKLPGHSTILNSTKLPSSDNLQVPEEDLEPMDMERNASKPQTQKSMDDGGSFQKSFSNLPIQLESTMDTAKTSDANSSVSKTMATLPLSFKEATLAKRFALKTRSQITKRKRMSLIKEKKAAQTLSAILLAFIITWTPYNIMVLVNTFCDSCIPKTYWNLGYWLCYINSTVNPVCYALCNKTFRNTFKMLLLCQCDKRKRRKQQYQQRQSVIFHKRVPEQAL
Source text: A model for this is the measurement of the anticholinergic effectiveness on isolated tracheal spirals of the guinea pig.
The test substance used was 3α-benziloyloxynortropane-8-spiro-1'-pyrrolidinium chloride (trospium chloride; MP 194), ipratropium bromide being used as comparison substance.
There is to be determined the anticholinergic effectiveness of MP 194 in comparison with the reference substance ipratropium bromide on the isolated tracheal spirals of the guinea pig.
3.1.1. animal species: guinea pig
3.1.2. animal strain: Pirbright white
3.3.1. test substance (test antagonist) trospium chloride (MP 194) (M.W. 428)
3.3.2. reference substance (reference antagonist) ipratropium bromide (Atrovent) (M.W. 412.4)
3.3.3.1. acetyl-β-methylcholine chloride (Sigma) (M.W. 195.7)
The guinea pig is stunned by a blow on the neck. Subsequently, the whole of the trachea is roughly freed beginning from the larynx up to the tracheal bifurcation, removed and transferred to tempered (37° C.) and carbogenized tyrode solution. After surrounding connective tissue has been removed as far as possible, the preparation is cut up spirally by means of fine scissors at an angle of about 45° and separated into two equal sized sections. After weighing, both preparations are provided proximally and distally with a silk thread. One thread serves for fixing the preparation by means of a loop to the bottom of the bath and the other is connected via a hook with the transducer above the bath vessel.
Subsequently, the preparations, corresponding to the calibration, are prestressed with about 80 mN and equilibrated from 50-100 minutes. During the equilibration phase, the nutrient solution in the bath vessels is renewed in 15 minute intervals. As soon as the resting muscle tonus of the preparation has stabilized, there takes place the cumulative addition of the agonist, whereby the addition of the next highest concentration first takes place when no further increase of contraction is recognisable (plateau). When the maximum contraction height of the preparation is achieved, the cumulative agonist addition is ended and the preparation is rinsed. After a further equilibration phase (v. supra), the cumulative addition of the agonist is repeated but this time in the presence of the test or reference antagonist.
3.6.1. The perfusion part consists of an L-shaped organ bath in the hollow space of which (longer limb) runs a double glass spiral through which the nutrient solution is passed into the actual bath vessel (28 ml. content; shorter limb). This bath vessel is divided into two chambers which are, however, connected together by two transverse connections. […] The inlet chambers as well as the feeding glass spirals are tempered from the outside to 37° C. by a separate liquid circulation. This tempering takes place with the help of a "Colora" ultra-thermostat type K (Colora Messtechnik GmbH, Dusseldorf, Germany) which serves as thermostat and pump. In order, in case of need, always to have available ready-for-use nutrient solution, above the organ bath is provided a double-walled storage container in which the nutrient solution is also tempered and carbogenised. This is connected via a glass stopcock and a polypropylene tube with double glass spiral in the interior of the organ bath.
3.6.2. The measurement and recording part includes a transducer (Statham-Universal-Zelle UC-2; Hugo Sachs Elektronic KG, Hugstetten, Germany). By means of a hanging-in weight, a force of 40 mN is produced on the transducer which passes as electrical signal via a connecting cable to a bridge amplifier. The amplification is smoothly so regulated that the force provided corresponds to a constant value on the scale or an analogous value on the millimeter paper of the recorder (dependent upon the amplification; see below). After fixing the organ, the preparation is prestressed to the doubled mark, corresponding to 80 mN. […]

[2] = system: awake guinea pig (cholinergically-induced bronchial cramps); test: inhalative provocation with acetyl-β-methylcholine chloride aerosol on awake guinea pigs (broncholytic/protective action); format: in vivo; details: for EC50: Cavia porcellus, read-out: EC50, average effective concentration w of acetyl-β-methylcholine chloride (provocation substance) after pre-treatment; for probit analysis reaction % observed: animals reacting with dyspnoea; for probit analysis reaction % calculated: probit regression
Protocol: animal strain: Pirbright white test substance: trospium chloride (MP 194) (M.W. 428) dosage: 3×10^-7 mole ml^-1 kg^-1 mode of administration: intraperitoneally test substance: dehydrotrospium chloride (WG 71) (M.W. 426) […]
reference substance: atropine hydrochloride (Serva; M.W. 325.8) […]
reference substance: isoproterenol (Fluka; M.W. 247.72) dosage: […]
further substances: acetyl-β-methylcholine chloride (Sigma; M.W. 195.7) mode of administration: 0.5 ml. min^-1 by inhalation.
The guinea pigs intended for an experiment are, after an acclimatization time of at least 8 days, subjected twice to an aerosol of 0.1% acetyl-β-methylcholine chloride solution since, as is known from experience, during the first two inhalative provocations, the animals react with more distinct respiratory disturbances than in the case of the subsequent provocations (adaptation). If, in the case of the two inhalation phases, a nonsensitivity (absence of respiratory disturbances) is observed towards the exposure, these animals are excluded from the actual experiment.
For the purpose of aerosol provocation, the guinea pigs are placed individually in an inhalation chamber (see Section 3.6 hereinafter) in which 0.5 ml. of solution per minute are atomized as droplet aerosol by means of a special nozzle (Rhema, Hofheim, Germany). […] With the help of a stopwatch, there is recorded the time from the commencement of inhalation to the appearance of the asphyctic state; the animals are immediately removed from the inhalation chamber and, as a rule, recover in a very short period of time (recovery of consciousness and normalization of breathing). If, within 180 seconds, no dysponea occurs, the inhalation is discontinued.
One aerosol concentration is tested per test day; the time between the individual aerosol provocations is at least 1 week.
The inhalation chamber is a Plexiglass container specially made for this purpose, the lid of which can be closed in an air-tight manner by means of rubber sealing and grip closure means. The internal measurements of the chamber are 285×190×180 mm., which corresponds to a volume of about 9.75 liters. The special nozzle (Rhema, Hofheim, Germany, order No. 504104) is fixed to a recess on the lid and ensures a uniform supply of the available chamber space with the aerosol. The provocation solution is supplied to the nozzle via an infusion pump (Braun, Melsungen, Germany) (0.5 ml./minute) and there atomized with a superpressure of 180 kPa from an attached pressure gas bottle (artificial air, KW-free). For reasons of safety, the aerosol provocation is carried out under a ventilator.
The EC50, as well as the related confidence interval (p>95%), are determined from the probit regression lines of the percentage values (v. supra) provided with weight coefficients after line adaptation by the "maximum likelihood" method (10 iterations). Furthermore, there is examined the adaptation of the lines to the observed data by means of the chiquadrat test. For the evaluation, a calculation programme is commercially available (Olivetti).

[3] = pre-treatment 3×10^-7 mol ml^-1 kg^-1 i.p., 15 min before inhalation, w of acetyl-β-methylcholine chloride in atomised solution, control animals w=0.000539, higher = more protection
[4] = acetyl-β-methylcholine chloride w=0.000562, 10 tested, pre-treatment 3×10^-7 mol ml^-1 kg^-1 i.p.
[5] = acetyl-β-methylcholine chloride w=0.000562, pre-treatment 3×10^-7 mol ml^-1 kg^-1 i.p.
[6] = acetyl-β-methylcholine chloride w=0.001000, 10 tested (isoproterenol 9), pre-treatment 3×10^-7 mol ml^-1 kg^-1 i.p.
[7] = acetyl-β-methylcholine chloride w=0.001000, pre-treatment 3×10^-7 mol ml^-1 kg^-1 i.p.
[8] = acetyl-β-methylcholine chloride w=0.001780, pre-treatment 3×10^-7 mol ml^-1 kg^-1 i.p.
[9] = acetyl-β-methylcholine chloride w=0.001780, trospium chloride 10 tested, dehydrotrospium chloride 9, atropine 9, isoproterenol 8, pre-treatment 3×10^-7 mol ml^-1 kg^-1 i.p.
[10] = acetyl-β-methylcholine chloride w=0.003160, 10 tested (isoproterenol 9), pre-treatment 3×10^-7 mol ml^-1 kg^-1 i.p.
[11] = acetyl-β-methylcholine chloride w=0.003160, pre-treatment 3×10^-7 mol ml^-1 kg^-1 i.p.
[12] = acetyl-β-methylcholine chloride w=0.005620, 10 tested (isoproterenol 9), pre-treatment 3×10^-7 mol ml^-1 kg^-1 i.p.
[13] = acetyl-β-methylcholine chloride w=0.005620, pre-treatment 3×10^-7 mol ml^-1 kg^-1 i.p.

Compound | EC50 [2, 3] [µg/mL] | number of animals reacting [2, 4] | probit analysis reaction % calculated [2, 5] [%] | number of animals reacting [2, 6] | probit analysis reaction % observed [2, 7] [%] | probit analysis reaction % calculated [2, 7] [%] | probit analysis reaction % observed [2, 8] [%] | probit analysis reaction % calculated [2, 8] [%] | number of animals reacting [2, 9] | number of animals reacting [2, 10] | probit analysis reaction % observed [2, 11] [%] | probit analysis reaction % calculated [2, 11] [%] | number of animals reacting [2, 12] | probit analysis reaction % observed [2, 13] [%] | probit analysis reaction % calculated [2, 13] [%] | further results
CN1[C@@H]2CC[C@H]1C[C@@H](OC(=O)C(CO)c1ccccc1)C2 (stereo partly shown) [atropine chloride, atropine hydrochloride, reference compound] | 1380 | 3 | 38.93 | 6 | 60.00 | 45.98 | 55.56 | 53.16 | 5 | 5 | 50.00 | 60.20 | 7 | 70.00 | 66.95 | antagonism against acetyl-β-methylcholine chloride / anticholinergic effectiveness (in words) [1]: dosage dependent antagonism; probit analysis reaction % observed [2, 5]: 30.00%; EC50, average effective concentration w of acetyl-β-methylcholine chloride (provocation substance) after pre-treatment [2, 3]: 0.00138
O=C(O[C@H]1C[C@H]2CC[C@@H](C1)[N+]21CCCC1)C(O)(c1ccccc1)c1ccccc1 [trospium chloride, 3α-benziloyloxynortropane-8-spiro-1'-pyrrolidinium chloride] | 2860 | 0 | 5.46 | 1 | 10.00 | 15.03 | 50.00 | 32.00 | 5 | 5 | 50.00 | 53.87 | 7 | 70.00 | 74.66 | Kb ([1]; antagonism against acetyl-β-methylcholine chloride, read-out: pA2 ± s (converted)): 0.55 nM; quality of the antagonism (in words) ([1]; comparison of maximum effects in absence and presence of the antagonist, listed as MP 194): competitively antagonistically effective; also recorded: competitive antagonism; strength of activity compared with ipratropium bromide (in words) ([1]; comparison of pA2 values, t-test, listed as MP 194): equivalent to the reference substance ipratropium bromide; also recorded: does not differ significantly; also recorded: equal to the reference substance ipratropium bromide; antagonism against acetyl-β-methylcholine chloride / anticholinergic effectiveness (in words) ([1]; listed as MP 194): comparable, dosage-dependent antagonism; also recorded: clear anticholinergic effectiveness; broncholytic effectiveness compared with atropine and isoproterenol (in words) ([2]; 15 min after i.p. administration, equimolar dosages): comparable with or superior to the well known parasympatholytics atropine and the β-sympathomimetic isoproterenol; also recorded: greater effectiveness of the test substances, especially of trospium chloride, in comparison with the reference substances; probit analysis reaction % observed, correction according to Bliss ([2]; guinea pig, in vivo): 2.50; broncholytic effect (in words) ([2]; intraperitoneal, cholinergically-induced bronchial cramps, awake guinea pig): outstanding broncholytic effect

From patent US4780476A, “Azoniaspironortropanol esters as asthma therapeutics and broncholytics” (Madaus GmbH & Co., priority 1985, dated 1988)
